Measurements as given in the NIST ThermoML archive (doi:10.1016/j.jct.2012.03.015).
Numbers after ± are expanded uncertainties.

Experiment: activity coefficient (dimensionless); of the first substance listed, at infinite dilution; xn = mol fraction of the nth substance listed
Conditions: 101 kPa, Liquid, Chromatography, x1 = 0

Row | Structure (SMILES) | activity coefficient (318.15 K) | activity coefficient (328.15 K) | activity coefficient (338.15 K) | activity coefficient (348.15 K) | activity coefficient (358.15 K) | activity coefficient (368.15 K)
1 | Cc1ccccc1C [1,2-dimethylbenzene] + COCC[N+]1(C)CCCC1.O=S(=O)([N-]S(=O)(=O)C(F)(F)F)C(F)(F)F | 1.94 ± 0.13 | 1.96 ± 0.13 | 1.97 ± 0.13 | 1.98 ± 0.13 | 1.99 ± 0.14 | 2 ± 0.14
2 | Cc1cccc(C)c1 [1,3-dimethylbenzene] + COCC[N+]1(C)CCCC1.O=S(=O)([N-]S(=O)(=O)C(F)(F)F)C(F)(F)F | 2.14 ± 0.15 | 2.16 ± 0.15 | 2.17 ± 0.15 | 2.19 ± 0.15 | 2.2 ± 0.15 | 2.22 ± 0.15
3 | Cc1ccc(C)cc1 [1,4-dimethylbenzene] + COCC[N+]1(C)CCCC1.O=S(=O)([N-]S(=O)(=O)C(F)(F)F)C(F)(F)F | 2.15 ± 0.15 | 2.17 ± 0.15 | 2.18 ± 0.15 | 2.2 ± 0.15 | 2.21 ± 0.15 | 2.23 ± 0.15
4 | C1COCCO1 [1,4-dioxane] + COCC[N+]1(C)CCCC1.O=S(=O)([N-]S(=O)(=O)C(F)(F)F)C(F)(F)F | 0.66 ± 0.05 | 0.68 ± 0.05 | 0.7 ± 0.05 | 0.72 ± 0.05 | 0.74 ± 0.05 | 0.76 ± 0.05
5 | C=CCCCCCCCC [1-decene] + COCC[N+]1(C)CCCC1.O=S(=O)([N-]S(=O)(=O)C(F)(F)F)C(F)(F)F | 41.7 ± 2.9 | 39 ± 2.7 | 36.4 ± 2.5 | 33.8 ± 2.3 | 31.7 ± 2.2 | 29.8 ± 2
6 | C=CCCCCC [1-heptene] + COCC[N+]1(C)CCCC1.O=S(=O)([N-]S(=O)(=O)C(F)(F)F)C(F)(F)F | 14.1 ± 1 | 13.4 ± 0.9 | 12.9 ± 0.9 | 12.3 ± 0.8 | 11.8 ± 0.8 | 11.4 ± 0.8
7 | C#CCCCCC [1-heptyne] + COCC[N+]1(C)CCCC1.O=S(=O)([N-]S(=O)(=O)C(F)(F)F)C(F)(F)F | 4.75 ± 0.32 | 4.71 ± 0.32 | 4.66 ± 0.32 | 4.62 ± 0.31 | 4.58 ± 0.31 | 4.55 ± 0.31
8 | C#CCCCC [1-hexyne] + COCC[N+]1(C)CCCC1.O=S(=O)([N-]S(=O)(=O)C(F)(F)F)C(F)(F)F | 3.29 ± 0.22 | 3.29 ± 0.22 | 3.28 ± 0.22 | 3.28 ± 0.22 | 3.28 ± 0.22 | 3.27 ± 0.22
9 | CCC[N+](=O)[O-] [1-nitropropane] + COCC[N+]1(C)CCCC1.O=S(=O)([N-]S(=O)(=O)C(F)(F)F)C(F)(F)F | 0.74 ± 0.05 | 0.742 ± 0.049 | 0.743 ± 0.049 | 0.744 ± 0.049 | 0.746 ± 0.049 | 0.747 ± 0.049
10 | C#CCCCCCC [1-octyne] + COCC[N+]1(C)CCCC1.O=S(=O)([N-]S(=O)(=O)C(F)(F)F)C(F)(F)F | 6.85 ± 0.47 | 6.73 ± 0.46 | 6.58 ± 0.45 | 6.48 ± 0.44 | 6.37 ± 0.43 | 6.27 ± 0.43
11 | C=CCCC [1-pentene] + COCC[N+]1(C)CCCC1.O=S(=O)([N-]S(=O)(=O)C(F)(F)F)C(F)(F)F | 6.65 ± 0.45 | 6.5 ± 0.44 | 6.35 ± 0.43 | 6.17 ± 0.42 | 6.07 ± 0.41 | 5.91 ± 0.4
12 | CC(C)CC(C)(C)C [2,2,4-trimethylpentane] + COCC[N+]1(C)CCCC1.O=S(=O)([N-]S(=O)(=O)C(F)(F)F)C(F)(F)F | 26.9 ± 1.8 | 25.1 ± 1.7 | 23.7 ± 1.6 | 22.3 ± 1.5 | 21.2 ± 1.4 | 20 ± 1.4
13 | CCC(C)(C)C [2,2-dimethylbutane] + COCC[N+]1(C)CCCC1.O=S(=O)([N-]S(=O)(=O)C(F)(F)F)C(F)(F)F | 15.1 ± 1 | 14.4 ± 1 | 13.7 ± 0.9 | 13.1 ± 0.9 | 12.6 ± 0.9 | 12 ± 0.8
14 | CCOC(C)(C)C [2-ethoxy-2-methylpropane] + COCC[N+]1(C)CCCC1.O=S(=O)([N-]S(=O)(=O)C(F)(F)F)C(F)(F)F | 6.31 ± 0.43 | 6.19 ± 0.42 | 6.12 ± 0.42 | 6.03 ± 0.41 | 5.94 ± 0.4 | 5.85 ± 0.4
15 | CCC(C)(C)OC [2-methoxy-2-methylbutane] + COCC[N+]1(C)CCCC1.O=S(=O)([N-]S(=O)(=O)C(F)(F)F)C(F)(F)F | 4.08 ± 0.28 | 4.06 ± 0.28 | 4.05 ± 0.28 | 4.03 ± 0.27 | 4.01 ± 0.27 | 4 ± 0.27
16 | COC(C)(C)C [2-methoxy-2-methylpropane] + COCC[N+]1(C)CCCC1.O=S(=O)([N-]S(=O)(=O)C(F)(F)F)C(F)(F)F | 2.76 ± 0.19 | 2.79 ± 0.19 | 2.81 ± 0.19 | 2.84 ± 0.19 | 2.86 ± 0.19 | 2.89 ± 0.2
17 | CC(C)CO [2-methyl-1-propanol] + COCC[N+]1(C)CCCC1.O=S(=O)([N-]S(=O)(=O)C(F)(F)F)C(F)(F)F | 2.76 ± 0.19 | 2.46 ± 0.17 | 2.2 ± 0.15 | 2.01 ± 0.14 | 1.84 ± 0.12 | 1.7 ± 0.11
18 | CC(C)(C)O [2-methylpropan-2-ol] + COCC[N+]1(C)CCCC1.O=S(=O)([N-]S(=O)(=O)C(F)(F)F)C(F)(F)F | 1.92 ± 0.13 | 1.79 ± 0.12 | 1.67 ± 0.11 | 1.56 ± 0.1 | 1.48 ± 0.1 | 1.4 ± 0.09
19 | CCC(C)CC [3-methylpentane] + COCC[N+]1(C)CCCC1.O=S(=O)([N-]S(=O)(=O)C(F)(F)F)C(F)(F)F | 16.6 ± 1.1 | 15.6 ± 1.1 | 14.8 ± 1 | 14.1 ± 1 | 13.5 ± 0.9 | 12.8 ± 0.9
20 | C=C(C)c1ccccc1 [(1-methylethenyl)benzene] + COCC[N+]1(C)CCCC1.O=S(=O)([N-]S(=O)(=O)C(F)(F)F)C(F)(F)F | 1.87 ± 0.13 | 1.93 ± 0.13 | 1.98 ± 0.13 | 2.03 ± 0.14 | 2.08 ± 0.14 | 2.12 ± 0.14
21 | CC(C)=O [acetone] + COCC[N+]1(C)CCCC1.O=S(=O)([N-]S(=O)(=O)C(F)(F)F)C(F)(F)F | 0.47 ± 0.04 | 0.48 ± 0.04 | 0.49 ± 0.04 | 0.5 ± 0.04 | 0.51 ± 0.04 | 0.52 ± 0.04
22 | CC#N [acetonitrile] + COCC[N+]1(C)CCCC1.O=S(=O)([N-]S(=O)(=O)C(F)(F)F)C(F)(F)F | 0.467 ± 0.036 | 0.469 ± 0.037 | 0.472 ± 0.037 | 0.474 ± 0.037 | 0.477 ± 0.037 | 0.479 ± 0.037
23 | c1ccccc1 [benzene] + COCC[N+]1(C)CCCC1.O=S(=O)([N-]S(=O)(=O)C(F)(F)F)C(F)(F)F | 1.03 ± 0.06 | 1.04 ± 0.07 | 1.06 ± 0.07 | 1.07 ± 0.07 | 1.08 ± 0.07 | 1.09 ± 0.07
